2 molecules from patent US20030203975A1, “Anti-cancer agents” (priority 1998, published 2003) can be followed below.

One assay has as its target T1, Topoisomerase I (Homo sapiens, UniProt P11387).
T1 sequence (P11387 1-765): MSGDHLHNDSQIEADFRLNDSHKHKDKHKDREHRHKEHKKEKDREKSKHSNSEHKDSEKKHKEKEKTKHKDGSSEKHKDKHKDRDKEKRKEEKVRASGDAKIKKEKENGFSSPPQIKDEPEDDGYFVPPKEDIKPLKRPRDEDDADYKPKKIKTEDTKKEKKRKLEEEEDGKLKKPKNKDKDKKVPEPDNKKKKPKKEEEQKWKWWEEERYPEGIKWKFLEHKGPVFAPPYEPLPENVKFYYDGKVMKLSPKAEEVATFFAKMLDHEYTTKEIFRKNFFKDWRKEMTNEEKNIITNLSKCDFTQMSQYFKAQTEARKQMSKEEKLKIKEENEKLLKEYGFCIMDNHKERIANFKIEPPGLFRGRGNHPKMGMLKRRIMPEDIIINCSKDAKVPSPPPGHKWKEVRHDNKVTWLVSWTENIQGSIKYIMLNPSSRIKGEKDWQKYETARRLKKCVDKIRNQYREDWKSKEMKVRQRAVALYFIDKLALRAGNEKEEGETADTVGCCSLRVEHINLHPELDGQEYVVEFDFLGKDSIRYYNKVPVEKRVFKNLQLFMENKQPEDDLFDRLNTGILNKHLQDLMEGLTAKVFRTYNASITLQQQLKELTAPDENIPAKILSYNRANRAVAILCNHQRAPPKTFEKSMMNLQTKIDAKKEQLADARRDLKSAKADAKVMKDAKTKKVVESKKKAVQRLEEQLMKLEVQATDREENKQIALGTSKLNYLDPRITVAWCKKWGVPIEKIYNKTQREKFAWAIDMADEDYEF
The experiment in a line: Topo I relaxation assay. It is filed as biochemical. The following applies: unit not given; compound at 1, 10, 25 and 50 μM in protocol. An excerpt:
Topo I Relaxation Assay Protocol.

In assay [1] the test system is DNA: Calf thymus sodium salt. In words: DNA binding assay, Hoechst dye displacement. Also noted: key: NB = Not binding. The following applies: concentration required to displace 50% of the Hoescht Dye; 20 μM DNA, 2 μM dye. The method, then: (§1) The propensity of selected compounds to bind to DNA in the absence of topos was measured in order to identify compounds that would bind weakly, or not at all. […] A […] was used determine binding constants of the compound to DNA by displacement of either ethidium bromide (an intercalator) or Hoechst dye 33258 (a groove binder) which form a DNA-bound fluorescent complex measured by fluorescence spectroscopy.
(§2) DNA Binding Assay Protocol
(§3) In order to detect the strength and mode of anthraquinone compound binding to DNA the displacement of known DNA binders was detected by measuring the fluorescence of a DNA/fluorescent compound complex. The addition of known concentrations of ethidium bromide, an interchelator, and Hoescht Dye, a groove binder, cause a fluorescent DNA/binder complex that can be detected and the fluorescence quantified. The addition of anthraquinone compounds displaces the interchelators or groove binders, depending on the compound mode of DNA binding, and therefore reduces the fluorescence accordingly. The preferred binding action of compounds can be quantified by determining the reduction in fluorescence resulting from a given concentration of compound. The quantification of a compounds ability to bind to DNA is expressed, as the concentration required to displace 50% of the ethidium bromide or Hoescht Dye, thus reducing the fluorescence by 50%. Therefore, the values produced are QE50 for ethidium, bromide, or QH50 for Hoescht Dye.
(§4) Compound: 300, 60, 10 and 10/6gM (1.66 μM) solution concentrations were prepared for use in the assay to produce a range of compound. Concentrations. 100, 200 and 300 μl of each dilution were used in the assay reaction. This provides a range of concentrations: −30, 20, 10, 6, 4, 2, 1, 0.67, 0.33, 0.17, 0.11, 0.06, 0.00 μM in the assay environment. Intermediate concentrations can be utilised to enhance the accuracy of the displacement concentration determination.
(§5) Buffer: 100 mM Tris, NaCI 500 mM. DNA: Calf thymus sodium salt. Stock solution of 200 μM was prepared in 10× assay buffer. Dilution of DNA therefore provided the correct concentration of assay buffer in the assay cell.300 μg DNA was used in 3 ml reaction mixture therefore 20 μM DNA concentration. Hoescht Dye 2 μM final concentration, therefore 100 μl of a 60 μM stock solution was added to a 3 ml assay. Ethidium Bromide 2 μM final concentration therefore 100 μl of a 60 μM stock solution was added to a 3 ml assay. Distilled H2O Water was added to produce 3 ml reaction volume. Order of addition: 1. DNA, 2. Water, 3. Drug, 4. Dye
(§6) The assay was completed with both Hoescht Dye and Ethidium. Bromide for each compound. The ethidium bromide is a DNA inter-chelator, Hoescht Dye is a minor groove binder. 100, 200 and […] of the lowest compound dilution was assayed. This procedure was repeated with all further dilution's. This provided a curve of fluorescence intensity decrease with increasing compound concentration. QE50 and QH50 values were determined by extrapolating the concentration of compound at the point where the fluorescence intensity was reduced by 50%. Controls involving compound only and ethidium. bromide or Hoechst Dye without compound were carried out for each experiment. Two readings for each concentration of compound were performed per experiment, each experiment was repeated at least three times. Fluorometer: Perkin Elmer Luminescence Spectrometer LS 50B.

In assay [2] the test system is DNA: Calf thymus sodium salt. In words: DNA binding assay, ethidium bromide displacement. Also noted: key: NB = Not binding. The following applies: concentration required to displace 50% of the ethidium bromide; 20 μM DNA, 2 μM dye. The method, then: as §1, §2, §3, §4, §5, §6
Assay [3] has as its system MAC 15A adenocarcinoma of the colon. In words: In vitro chemosensitivity against MAC 15A adenocarcinoma (MTT assay). Format: cell-based. The following applies: Mus musculus, MAC15A, 96 hours continuous exposure.
Another assay concerns the target Topoisomerase IIβ (Homo sapiens, UniProt Q02880). In words: Topo II cleavage assay. The following applies: unit not given; compound at 1, 10, 25 and 50 μM in protocol. It is filed as biochemical. The method, then: Topo II 5 μl (1-1 μg); […] Results are included in Table 3 below.

Chain of Topoisomerase IIβ (Q02880 whole entry): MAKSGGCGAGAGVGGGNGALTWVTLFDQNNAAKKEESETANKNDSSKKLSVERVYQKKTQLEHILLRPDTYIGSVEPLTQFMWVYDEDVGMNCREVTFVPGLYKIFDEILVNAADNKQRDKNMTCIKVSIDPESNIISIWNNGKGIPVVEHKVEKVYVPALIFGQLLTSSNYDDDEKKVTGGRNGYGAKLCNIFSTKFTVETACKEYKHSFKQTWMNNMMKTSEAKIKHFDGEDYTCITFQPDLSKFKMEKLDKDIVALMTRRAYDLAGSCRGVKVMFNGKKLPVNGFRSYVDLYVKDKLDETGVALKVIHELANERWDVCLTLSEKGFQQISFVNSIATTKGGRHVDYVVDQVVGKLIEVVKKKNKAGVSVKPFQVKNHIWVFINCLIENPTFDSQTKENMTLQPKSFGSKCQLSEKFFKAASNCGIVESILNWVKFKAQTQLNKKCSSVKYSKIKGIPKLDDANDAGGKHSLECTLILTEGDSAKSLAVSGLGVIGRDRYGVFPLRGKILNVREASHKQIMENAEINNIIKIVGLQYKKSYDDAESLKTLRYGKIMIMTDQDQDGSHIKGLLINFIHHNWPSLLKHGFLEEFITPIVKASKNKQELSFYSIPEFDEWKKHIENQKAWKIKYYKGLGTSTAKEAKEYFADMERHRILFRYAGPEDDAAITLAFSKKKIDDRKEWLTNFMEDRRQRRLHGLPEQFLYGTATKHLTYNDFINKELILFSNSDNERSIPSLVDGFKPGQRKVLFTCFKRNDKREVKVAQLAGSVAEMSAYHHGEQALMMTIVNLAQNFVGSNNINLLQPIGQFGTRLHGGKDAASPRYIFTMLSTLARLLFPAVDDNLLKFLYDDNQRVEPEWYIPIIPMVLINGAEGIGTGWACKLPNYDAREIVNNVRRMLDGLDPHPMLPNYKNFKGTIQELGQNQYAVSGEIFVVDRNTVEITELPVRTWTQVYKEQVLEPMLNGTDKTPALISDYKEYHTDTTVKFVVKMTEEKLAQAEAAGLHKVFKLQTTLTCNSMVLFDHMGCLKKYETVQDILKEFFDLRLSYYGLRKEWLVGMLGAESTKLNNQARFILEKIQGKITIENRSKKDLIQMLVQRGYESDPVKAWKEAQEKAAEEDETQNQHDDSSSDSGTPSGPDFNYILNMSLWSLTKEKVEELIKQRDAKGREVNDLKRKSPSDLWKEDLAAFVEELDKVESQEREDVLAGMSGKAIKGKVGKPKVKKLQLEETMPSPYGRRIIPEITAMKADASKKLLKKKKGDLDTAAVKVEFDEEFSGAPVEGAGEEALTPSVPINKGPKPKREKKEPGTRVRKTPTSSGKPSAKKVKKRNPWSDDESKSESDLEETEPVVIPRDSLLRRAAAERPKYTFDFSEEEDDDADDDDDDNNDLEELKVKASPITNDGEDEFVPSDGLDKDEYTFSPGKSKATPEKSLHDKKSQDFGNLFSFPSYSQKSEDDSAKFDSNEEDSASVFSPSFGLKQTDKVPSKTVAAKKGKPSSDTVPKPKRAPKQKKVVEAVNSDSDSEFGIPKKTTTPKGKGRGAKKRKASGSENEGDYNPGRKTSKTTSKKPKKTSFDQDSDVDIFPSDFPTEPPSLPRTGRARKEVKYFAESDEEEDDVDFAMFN

On to `C[C@@H](N)C(=O)OCCCCNc1cccc2c1C(=O)c1ccccc1C2=O.O=C(O)C(F)(F)F` [Example 45, 1-[4-(D-alanyloxy)butylamino]anthracene-9,10-dione trifluoroacetate], for which the “TopI Relax.” value on Topoisomerase I is 25. Besides, the “QH50 Minor groove binding” value in assay [1] is reported as “NB”. In assay [2], the “QE50 Intercalating” value is “NB”. For the same molecule, in assay [3], the IC50 (usually the concentration that gives 50% inhibition) amounted to 2900 nM. The “TopIIβ Cleave.” value on Topoisomerase IIβ is recorded as 20.

For the molecule `C[C@H](N)C(=O)OCCCCNc1cccc2c1C(=O)c1ccccc1C2=O.O=C(O)C(F)(F)F` [Example 43, 1-[4-(L-alanyloxy)butylamino]anthracene-9,10-dione trifluoroacetate], on Topoisomerase I, the “TopI Relax.” value stood at 25. Also, the “QH50 Minor groove binding” value in assay [1] is “NB”. Moreover, the “QE50 Intercalating” value in assay [2] is “NB”. Moreover, in assay [3], the IC50 stood at 2600 nM. Besides, the “TopIIβ Cleave.” value at Topoisomerase IIβ is given as 25.
